What was measured:
β-catenin/Tcf-4 = test: cells; assay type: cell-based; conditions: Homo sapiens, 24 hours of incubation with compound, ratio Firefly/Renilla luciferase
Method in brief: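 SW480-derived lines with integrated reporters (Tcf-4-driven firefly luciferase; SV40 firefly as specificity control; SV40 Renilla for cell number/toxicity), treated 24 hours with titrated compounds, final 0.316% DMSO. Dual-luciferase read-out; firefly/Renilla ratio as % of control, duplicate plates, IC50 (nM) from curve fit.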

SV40-Luc = SV40-Luc control luciferase reporter assay, SV 5A8 cell line (SV40-Luc and SV40-R-Luc), control for non-specific inhibitors; assay type: cell-based, human; conditions: Homo sapiens, SV5A8, 24 h, SV 5A8 cells derived from SW480; 24 hours of incubation with compound; ratio Firefly/Renilla luciferase
Method in brief: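 Cells were plated and, 20-24 hours later, treated with titrated compound (0.316% DMSO final). After 24 hours they were lysed or given Dual-Glo reagent, and firefly then Renilla luminescence was measured. IC50s came from firefly/Renilla ratios as % of control.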

[1] = SW480, 24 h, Tcf 33.13 cells derived from SW480
[2] = Tcf22C11, 24 h, Tcf 22C11 cells derived from SW480

Row | SMILES | IC50 (β-catenin/Tcf-4; [1]) [nM] | IC50 (β-catenin/Tcf-4; [2]) [nM] | IC50 (SV40-Luc) [nM]
1 | Cc1ccc2c(NCc3ccc(NC(=O)c4ccc(F)cc4)cc3)nc(N3CCN(c4ncccn4)CC3)nc2c1 [Example 216, 4-fluoro-N-[4-({[7-methyl-2-(4-pyrimidin-2-ylpiperazin-1-yl)quinazolin-4-yl]amino}methyl)phenyl]benzamide] | 315 | 464 | > 3220
2 | Cc1ccc2c(NCc3ccc(NC(=O)c4ccc(F)cc4)cc3)nc(N3CCN(C=O)CC3)nc2c1 [Example 217, 4-fluoro-N-[4-({[2-(4-formylpiperazin-1-yl)-7-methylquinazolin-4-yl]amino}methyl)phenyl]benzamide] | 3680 | 1860 | > 16300
3 | Cc1ccc2c(NCc3ccc(NC(=O)c4ccc(F)cc4)cc3)nc(N3CCN(CC(=O)NC(C)C)CC3)nc2c1 [Example 219, 4-fluoro-N-(4-{[(2-{4-[2-(isopropylamino)-2-oxoethyl]piperazin-1-yl}-7-methylquinazolin-4-yl)amino]methyl}phenyl)benzamide] | 1420 | 1800 | > 14600
4 | COCCN(C)c1nc(NCc2ccc(NC(=O)c3ccc(F)cc3)cc2)c2ccc(C)cc2n1 [Example 220, 4-fluoro-N-{4-[({2-[(2-methoxyethyl)(methyl)amino]-7-methylquinazolin-4-yl}amino)methyl]phenyl}benzamide] | 682 | 1140 | > 8510
5 | Cc1ccc2c(NCc3ccc(NC(=O)c4ccc(F)cc4)cc3)nc(N(C)CCc3ccccn3)nc2c1 [Example 222, 4-fluoro-N-{4-[({7-methyl-2-[methyl(2-pyridin-2-ylethyl)amino]quinazolin-4-yl}amino)methyl]phenyl}benzamide] | 650 | 918 | > 7880
6 | Cc1ccc2c(NCc3ccc(NC(=O)c4ccc(F)cc4)cc3)nc(N3CCCCC3CCO)nc2c1 (stereo not drawn) [Example 224, 4-fluoro-N-{4-[({2-[2-(2-hydroxyethyl)piperidin-1-yl]-7-methylquinazolin-4-yl}amino)methyl]phenyl}benzamide] | 781 | 1000 | > 9740
7 | Cc1ccc2c(NCc3ccc(NC(=O)c4ccc(F)cc4)cc3)nc(N3CCC(N4CCCC4)CC3)nc2c1 [Example 226, 4-fluoro-N-[4-({[7-methyl-2-(4-pyrrolidin-1-ylpiperidin-1-yl)quinazolin-4-yl]amino}methyl)phenyl]benzamide] | 754 | 866 | > 9280
8 | Cc1ccc2c(NCc3ccc(NC(=O)c4ccc(F)cc4)cc3)nc(N3CCC[C@H]3CN3CCCC3)nc2c1 [Example 228, 4-fluoro-N-{4-[({7-methyl-2-[(2S)-2-(pyrrolidin-1-ylmethyl)pyrrolidin-1-yl]quinazolin-4-yl}amino)methyl]phenyl}benzamide] | 2210 | 1900 | > 4640
9 | Cc1ccc2c(NCc3ccc(NC(=O)c4ccc(F)cc4)cc3)nc(NCCN3CCCC3)nc2c1 [Example 237, 4-fluoro-N-{4-[({7-methyl-2-[(2-pyrrolidin-1-ylethyl)amino]quinazolin-4-yl}amino)methyl]phenyl}benzamide] | 829 | 888 | > 5010
10 | Cc1ccc2c(NCc3ccc(NC(=O)c4ccc(Br)cc4)cc3)nc(N(C)C)nc2c1 [Example 239, 4-bromo-N-[4-({[2-(dimethylamino)-7-methylquinazolin-4-yl]amino}methyl)phenyl]benzamide] | 193 | 204 | > 1270
11 | Cc1ccc2c(NCc3ccc(NC(=O)c4ccc(C)nc4)cc3)nc(N(C)C)nc2c1 [Example 241, N-[4-({[2-(dimethylamino)-7-methylquinazolin-4-yl]amino}methyl)phenyl]-6-methylnicotinamide] | 813 | 1030 | > 23400
12 | Cc1ccc2c(NCc3ccc(NC(=O)C4CCN(C5CCCCC5)CC4)cc3)nc(N(C)C)nc2c1 [Example 245, 1-cyclohexyl-N-[4-({[2-(dimethylamino)-7-methylquinazolin-4-yl]amino}methyl)phenyl]piperidine-4-carboxamide] | 809 | 754 | > 9990
13 | CCCCN1CCC(C(=O)Nc2ccc(CNc3nc(N(C)C)nc4cc(C)ccc34)cc2)CC1 [Example 249, 1-butyl-N-[4-({[2-(dimethylamino)-7-methylquinazolin-4-yl]amino}methyl)phenyl]piperidine-4-carboxamide] | 1170 | 1480 | > 10500
14 | Cc1ccc2c(NCc3ccc(NC(=O)C4CCN(Cc5ccc(F)cc5)CC4)cc3)nc(N(C)C)nc2c1 [Example 251, N-[4-({[2-(dimethylamino)-7-methylquinazolin-4-yl]amino}methyl)phenyl]-1-(4-fluorobenzyl)piperidine-4-carboxamide] | 215 | 262 | > 8340

Further lines, results first:

Row | IC50 (β-catenin/Tcf-4; [1]) [nM] | IC50 (β-catenin/Tcf-4; [2]) [nM] | IC50 (SV40-Luc) [nM] | SMILES
15 | 3190 | 1960 | > 12000 | Cc1ccc2c(NCc3ccc(NC(=O)c4ccc(F)cc4)cc3)nc(N3CCN(Cc4ccc5c(c4)OCO5)CC3)nc2c1 [Example 215, N-{4-[({2-[4-(1,3-benzodioxol-5-ylmethyl)piperazin-1-yl]-7-methylquinazolin-4-yl}amino)methyl]phenyl}-4-fluorobenzamide]
16 | 939 | 1280 | > 15200 | CCOC(=O)N1CCN(c2nc(NCc3ccc(NC(=O)c4ccc(F)cc4)cc3)c3ccc(C)cc3n2)CC1 [Example 218, ethyl 4-[4-({4-[(4-fluorobenzoyl)amino]benzyl}amino)-7-methylquinazolin-2-yl]piperazine-1-carboxylate]
17 | 1060 | 1240 | > 8200 | Cc1ccc2c(NCc3ccc(NC(=O)c4ccc(F)cc4)cc3)nc(N(C)Cc3ccco3)nc2c1 [Example 221, 4-fluoro-N-{4-[({2-[(2-furylmethyl)(methyl)amino]-7-methylquinazolin-4-yl}amino)methyl]phenyl}benzamide]
18 | 2660 | 4460 | > 15600 | CC(=O)N1CCCN(c2nc(NCc3ccc(NC(=O)c4ccc(F)cc4)cc3)c3ccc(C)cc3n2)CC1 [Example 223, N-[4-({[2-(4-acetyl-1,4-diazepan-1-yl)-7-methylquinazolin-4-yl]amino}methyl)phenyl]-4-fluorobenzamide]
19 | 736 | 1150 | > 10000 | CCN1CCN(c2nc(NCc3ccc(NC(=O)c4ccc(F)cc4)cc3)c3ccc(C)cc3n2)CC1 [Example 227, N-[4-({[2-(4-ethylpiperazin-1-yl)-7-methylquinazolin-4-yl]amino}methyl)phenyl]-4-fluorobenzamide]
20 | 2320 | 2190 | > 4620 | Cc1ccc2c(NCc3ccc(NC(=O)c4ccc(F)cc4)cc3)nc(NCCCN3CCN(C)CC3)nc2c1 [Example 229, 4-fluoro-N-(4-{[(7-methyl-2-{[3-(4-methylpiperazin-1-yl)propyl]amino}quinazolin-4-yl)amino]methyl}phenyl)benzamide]
21 | 336 | 318 | > 5590 | Cc1ccc2c(NCc3ccc(NC(=O)c4ccc(Cl)nc4)cc3)nc(N(C)C)nc2c1 [Example 242, 6-chloro-N-[4-({[2-(dimethylamino)-7-methylquinazolin-4-yl]amino}methyl)phenyl]nicotinamide]
22 | 1680 | 1920 | > 23100 | Cc1ccc2c(NCc3ccc(NC(=O)C4CCN(C)CC4)cc3)nc(N(C)C)nc2c1 [Example 243, N-[4-({[2-(dimethylamino)-7-methylquinazolin-4-yl]amino}methyl)phenyl]-1-methylpiperidine-4-carboxamide]
23 | 962 | 650 | > 10500 | Cc1ccc2c(NCc3ccc(NC(=O)C4CCN(CC(C)C)CC4)cc3)nc(N(C)C)nc2c1 [Example 244, N-[4-({[2-(dimethylamino)-7-methylquinazolin-4-yl]amino}methyl)phenyl]-1-isobutylpiperidine-4-carboxamide]
24 | 1930 | 1830 | > 20100 | Cc1ccc2c(NCc3ccc(NC(=O)C4CCN(Cc5ccco5)CC4)cc3)nc(N(C)C)nc2c1 [Example 246, N-[4-({[2-(dimethylamino)-7-methylquinazolin-4-yl]amino}methyl)phenyl]-1-(2-furylmethyl)piperidine-4-carboxamide]
25 | 467 | 539 | > 4200 | Cc1ccc(CN2CCC(C(=O)Nc3ccc(CNc4nc(N(C)C)nc5cc(C)ccc45)cc3)CC2)cc1 [Example 247, N-[4-({[2-(dimethylamino)-7-methylquinazolin-4-yl]amino}methyl)phenyl]-1-(4-methylbenzyl)piperidine-4-carboxamide]
26 | > 20100 | > 20100 | > 20100 | Cc1ccc2c(NCc3ccc(NC(=O)C4CCN(Cc5ncc[nH]5)CC4)cc3)nc(N(C)C)nc2c1 [Example 248, N-[4-({[2-(dimethylamino)-7-methylquinazolin-4-yl]amino}methyl)phenyl]-1-(1H-imidazol-2-ylmethyl)piperidine-4-carboxamide]
27 | 213 | 373 | > 9280 | COc1ccc(CN2CCC(C(=O)Nc3ccc(CNc4nc(N(C)C)nc5cc(C)ccc45)cc3)CC2)cc1 [Example 250, N-[4-({[2-(dimethylamino)-7-methylquinazolin-4-yl]amino}methyl)phenyl]-1-(4-methoxybenzyl)piperidine-4-carboxamide]

— patent US20090004185A1, “AMINO-SUBSTITUTED QUINAZOLINE DERIVATIVES AS INHIBITORS OF BETA-CATENIN/TCF-4 PATHWAY AND CANCER TREATMENT AGENTS” (WYETH, priority 2007, published 2009)
